Data published in patent US7585895B2, “Therapeutic substituted cyclopentanes” (Allergan, Inc., priority 2005, dated 2009).

biological target: T1, hEP1 (Homo sapiens, UniProt P34995); test: FLIPR calcium signal, EP1; format: cell-based; settings: HEK-293(EBNA)
T1 construct: expressed in transfected cells
T1 sequence (P34995 1-402): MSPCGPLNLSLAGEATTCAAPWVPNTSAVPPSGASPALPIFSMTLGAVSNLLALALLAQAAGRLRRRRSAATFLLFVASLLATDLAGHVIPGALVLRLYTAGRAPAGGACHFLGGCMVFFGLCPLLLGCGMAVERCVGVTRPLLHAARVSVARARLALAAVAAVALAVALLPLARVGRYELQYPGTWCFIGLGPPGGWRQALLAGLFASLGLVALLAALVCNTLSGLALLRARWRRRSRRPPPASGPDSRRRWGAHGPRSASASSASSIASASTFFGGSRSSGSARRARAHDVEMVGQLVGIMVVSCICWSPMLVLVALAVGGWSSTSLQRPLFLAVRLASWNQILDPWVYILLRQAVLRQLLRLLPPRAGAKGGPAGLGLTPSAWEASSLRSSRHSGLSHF
Experimental: HEK-293(EBNA) cells, stably expressing one type or subtype of recombinant human prostaglandin receptors (prostaglandin receptors expressed: hDP/Gqs5; hEP1; hEP2/Gqs5; hEP3A/Gqi5; hEP4/Gqs5; hFP; hIP; hTP), were cultured in 100 mm culture dishes in high-glucose DMEM medium containing 10% fetal bovine serum, 2 mM 1-glutamine, 250 μg/ml geneticin (G418) and 200 μg/ml hygromycin B as selection markers, and 100 units/ml penicillin G, 100 μg/ml streptomycin and 0.25 μg/ml amphotericin B.
Cells were seeded at a density of 5×10^4 cells per well in Biocoat® Poly-D-lysine-coated black-wall, clear-bottom 96-well plates (Becton-Dickinson) and allowed to attach overnight in an incubator at 37° C. Cells were then washed two times with HBSS-HEPES buffer (Hanks Balanced Salt Solution without bicarbonate and phenol red, 20 mM HEPES, pH 7.4) using a Denley Cellwash plate washer (Labsystems). After 45 minutes of dye-loading in the dark, using the calcium-sensitive dye Fluo-4 AM at a final concentration of 2 μM, plates were washed four times with HBSS-HEPES buffer to remove excess dye leaving 100 μl in each well. Plates were re-equilibrated to 37° C. for a few minutes.
Cells were excited with an Argon laser at 488 nm, and emission was measured through a 510-570 nm bandwidth emission filter (FLIPR™, Molecular Devices, Sunnyvale, Calif.). Drug solution was added in a 50 μl volume to each well to give the desired final concentration. The peak increase in fluorescence intensity was recorded for each well. On each plate, four wells each served as negative (HBSS-HEPES buffer) and positive controls (standard agonists: BW245C (hDP); PGE2 (HEP1; hEP2/Gqs5; hEP3A/Gqi5; hEP4/Gqs5); PGF2α (hFP); carbacyclin (hIP); U-46619 (hTP), depending on receptor). The peak fluorescence change in each drug-containing well was then expressed relative to the controls.
Compounds were tested in a high-throughput (HTS) or concentration-response (CoRe) format. In the HTS format, forty-four compounds per plate were examined in duplicates at a concentration of 10^−5 M. To generate concentration-response curves, four compounds per plate were tested in duplicates in a concentration range between 10^−5 and 10^−11 M. The duplicate values were averaged. In either, HTS or CoRe format each compound was tested on at least 3 separate plates using cells from different passages to give an n≧3.

Ca2+ Signal-EC50 (nM) EP1	SMILES
not active	CCCCCC(O)c1cccc([C@@H]2[C@@H](C/C=C\CCCC(=O)O)[C@H](Cl)C[C@H]2O)c1 (stereo partly drawn) [Entry 29, (Z)-7-{(1R,2S,3R,5R)-5-Chloro-3-hydroxy-2-[3-(1-hydroxy-hexyl)-phenyl]-cyclopentyl}-hept-5-enoic acid]
not active	CCCCC(O)c1cccc([C@@H]2[C@@H](C/C=C\CCCC(=O)O)[C@H](Cl)C[C@H]2O)c1 (stereo partly drawn) [Entry 30, (Z)-7-{(1R,2S,3R,5R)-5-Chloro-3-hydroxy-2-[3-(1-hydroxy-pentyl)-phenyl]-cyclopentyl}-hept-5-enoic acid]
not active	CCCCCC(O)C(C)(C)c1ccc([C@@H]2[C@@H](C/C=C\CCCC(=O)O)[C@H](Cl)C[C@H]2O)cc1 (stereo partly drawn) [Entry 31, (Z)-7-{(1R,2S,3R,5R)-5-Chloro-3-hydroxy-2-[4-(2-hydroxy-1,1-dimethyl-heptyl)-phenyl]-cyclopentyl}-hept-5-enoic acid]
not active	CCCCCCc1ccc([C@@H]2[C@@H](C/C=C\CCCC(=O)O)[C@H](Cl)C[C@H]2O)cc1 [Entry 33, (Z)-7-[(1R,2S,3R,5R)-5-Chloro-2-(4-hexyl-phenyl)-3-hydroxy-cyclopentyl]-hept-5-enoic acid]
not active	CCCCCC(O)c1ccc([C@@H]2[C@@H](C/C=C\CCCC(=O)O)[C@H](Cl)C[C@@H]2O)cc1 (stereo partly drawn) [Entry 34, (Z)-7-{(1R,2S,3S,5R)-5-Chloro-3-hydroxy-2-[4-(1-hydroxy-hexyl)-phenyl]-cyclopentyl}-hept-5-enoic acid]
